Results from patent US9193699B2, “Apoptosis inducing compounds” (INSTITUT NATIONAL DE LA SANTE ET DE LA RECHERCHE MEDICALE …, priority 2011, dated 2015).

How the values were obtained:
[1] = test system: Human breast tumor SUM149 cells; assay: Inhibition of tumor cell growth (alamar blue), SUM149; assay type: cell-based; details: 120 h, calculated on the basis of cell growth inhibition, day 5, alamar blue, read-out: IC50 for the inhibition of SUM149 tumor cells growth
Method: (§1) All biological experiments (Examples 2 to 9) have been performed with recommended cell line specific culture medium. For SUM149 and L226, culture medium is supplemented with 10% Fetal Calf Serum. For HME-1 and MCF-10A, culture medium is supplemented with 5% Horse Serum.
Human breast tumor SUM149 cells (Inflammatory Breast Cancer (IBC) of basal subtype) were plated in a 96 well plate at 3000 cells/100 μL at 37° C. in 5% CO2. Compounds 1, 3, 4, 5, 6, 7, 8, 9, 10, 11, 12, 13, 14 at 10 μM were added at day 0 and day 3. The number of viable cells was determined in triplicate at day 5 by incubating 10 μL of the alamar blue staining solution for 2 hours at 37° C. (FIG. 1).
(§2) Human breast tumor SUM149 cells were plated in a 96 well plate at 3000 cells/100 μL at 37° C. in 5% CO2. Serial dilutions of drugs (compounds 1, 3 or 4) ranging from 20 μM to 300 nM were added at day 0 and day 3. The number of viable cells was determined in triplicate at day 5 by incubating 10 μL of the alamar blue staining solution for 2 hours at 37° C. (FIG. 2).
IC50 values of compounds 1-14 for the inhibition of SUM149 and L226 tumor cells growth were measured (according to the experimental procedure of Examples 2 and 3):
Human breast tumor SUM149 cells were plated in a 96 well plate at 3000 cells/100 μL at 37° C. in 5% CO2 in recommended medium containing 10% FCS or in synthetic medium without FCS. Serial dilutions of drug (compound 4) ranging from 10 μM to 0.16 μM were added at day 0 and day 3. The number of viable cells was determined in triplicate at day 5 by incubating 10 μL of the alamar blue staining solution for 2 hours at 37° C. (FIG. 11). The […] in recommended medium containing 10% FCS was measured at 2 μM, while it was measured at 0.6 μM without FCS.

[2] = test system: Human breast tumor L226 cells; assay: Inhibition of tumor cell growth (alamar blue), L226; assay type: cell-based; details: 120 h, calculated on the basis of cell growth inhibition, day 5, alamar blue
Method: as §1
Human breast tumor L226 cells (Inflammatory Breast Cancer (IBC) of ERB-B2 subtype) were plated in a 96 well plate at 3000 cells/100 μL at 37° C. in 5% CO2. Serial dilutions of drugs (compounds 1, 3 or 4) ranging from 20 μM to 300 nM were added at day 0 and day 3. The number of viable cells was determined in triplicate at day 5 by incubating 10 μL of the alamar blue staining solution for 2 hours at 37° C. (FIG. 3).
IC50 values of compounds 1-14 for the inhibition of SUM149 and L226 tumor cells growth were measured (according to the experimental procedure of Examples 2 and 3): […]

[3] = test system: Human normal mammary epithelial MCF-10A cells; assay: Effect on growth of normal cells (alamar blue), MCF-10A; assay type: cell-based; details: calculated on the basis of cell growth inhibition
Method: as §1
as §2, with “normal mammary epithelial MCF-10A” for “breast tumor SUM149”, “5).” for “2).”
(§3) IC50 values of compounds 1-14 for the inhibition of MCF-10A and HME-1 normal cells growth were also measured (according to the experimental procedure of Examples 4 and 5): […]

[4] = test system: Human normal mammary epithelial HME-1 cells; assay: Effect on growth of normal cells (alamar blue), HME-1; assay type: cell-based; details: HME1, calculated on the basis of cell growth inhibition
Method: as §1
as §2, with “normal mammary epithelial HME-1” for “breast tumor SUM149”, “4).” for “2).”
as §3

[5] = test system: caspase-3 and caspase-7 in SUM149 cells; assay: Caspase 3/7 activation (Caspase-Glo 3/7) in SUM149 tumor cells; assay type: cell-based; details: Homo sapiens, R=RLU at 20 μM/RLU at 0 μM, 24 h, read-out: Caspase 3/7 activation R (RLU fold increase from untreated cells)
Method: (§4) Human breast tumor SUM149 cells were plated in a 96 well plate at 10000 cells/100 μL at 37° C. in 5% CO2. Serial dilutions of drugs (compounds 1, 3 or 4) ranging from 20 μM to 300 nM were added at day 0. Active caspase-3 and caspase-7 were measured in triplicate after 24 h treatment by incubating 50 μL of the Caspase-Glo 3/7 reagent for 60 min at 25° C. This reagent containing the proluminescent tetrapeptide sequence DEVD in a cell lysis buffer (Promega) (FIG. 6).
(§5) Caspase 3/7 activation in SUM149 and L226 tumor cells was measured.
(§6) The calculated values R correspond to Relative Luminescence Units (RLU) fold increase from untreated cells (R=RLU at 20 μM/RLU at 0 μM).

[6] = test system: caspase-3 and caspase-7 in L226 cells; assay: Caspase 3/7 activation (Caspase-Glo 3/7) in L226 tumor cells; assay type: cell-based; details: Homo sapiens, R=RLU at 20 μM/RLU at 0 μM, 24 h, read-out: Caspase 3/7 activation R (RLU fold increase from untreated cells)
Method: as §4, with “L226” for “SUM149”, “7).” for “6).”
as §5, §6

[7] = test system: caspase-3 and caspase-7 in MCF-10A cells; assay: Caspase 3/7 activation (Caspase-Glo 3/7) in MCF-10A normal cells; assay type: cell-based; details: Homo sapiens, R=RLU at 20 μM/RLU at 0 μM, 24 h, read-out: Caspase 3/7 activation R (RLU fold increase from untreated cells)
Method: as §4, with “normal mammary epithelial MCF-10A” for “breast tumor SUM149”, “9).” for “6).”
as §6
(§7) Caspase 3/7 activation in MCF-10A and HME-1 normal cells was also measured.

[8] = test system: caspase-3 and caspase-7 in HME-1 cells; assay: Caspase 3/7 activation (Caspase-Glo 3/7) in HME-1 normal cells; assay type: cell-based; details: Homo sapiens, HME1, R=RLU at 20 μM/RLU at 0 μM, 24 h, read-out: Caspase 3/7 activation R (RLU fold increase from untreated cells)
Method: as §4, with “normal mammary epithelial HME-1” for “breast tumor SUM149”, “8).” for “6).”
as §6, §7

[9] = test system: Human breast tumor SUM149 cells; assay: Annexin V/7-AAD apoptosis with or without Z-VAD-FMK; assay type: cell-based; details: 2.5 to 20 μM, 48 h, with Z-VAD-FMK pan-caspases inhibitor
Method: Human breast tumor SUM149 cells were plated in dishes at a concentration of 10^6 cells/[…] Cells were treated with compound 3 or compound 4 (2.5 to 20 μM) for 48 h, with or without Z-VAD-FMK, a pan-caspases inhibitor. Cells were double stained with annexinV-FITC and 7-AAD to measure cell apoptosis.

[10] = test system: tumors derived from MMTC-ErbB2/neu mice; assay: TUNEL assay of tumor apoptosis in MMTV-ErB2/Neu mice; assay type: in vivo; details: 100 mg/kg for 30 days
Method: DNA fragmentation in apoptotic cells was analyzed by the TUNEL assay (ApopTag detection kit, Millipore) as recommended by the manufacturer.
Briefly, 4 μm sections of paraffin-embedded fixed tissue from tumors derived from MMTC-ErbB2/neu mice treated with vehicle or with Compound 12, 4 or 8 (100 mg/kg) for 30 days, were deparaffined with successive histolemon and ethanol washes, then treated with 20 μg/mL proteinase K for 15 min at room temperature. Endogenous peroxidise was quenched with 3% hydrogen peroxide. […] Coloration was performed using the diaminobenzidine mixed substrate (Dako). Counterstaining was done with a solution of 1% methyl green for 5 min at room temperature. After distilled water and N-butanol washes, specimens were mounted in Pertex medium (CellPath). Observations were made using the Leica DMD108 digital microimaging device (Leica Microsystems GmbH).

IC50 [1] [µM]	IC50 [2] [µM]	Compound	IC50 [3] [µM]	IC50 [4] [µM]	fold induction at 20 µM [5]	fold induction at 20 µM [6]	fold induction at 20 µM [7]	fold induction at 20 µM [8]	effect of Z-VAD treatment on compound induced apoptosis (Annexin V positive cells) [9]	percentage of cells having TdT positive nuclei in tumors [10]
2.5	2.5	CC(C)c1ccc(S(=O)(=O)N2CCSC(C)(C)[C@@H]2C(=O)NO)cc1 [Compound 3, (3S)—N-hydroxy-4-[(4-isopropylphenyl)sulfonyl]-2,2-dimethyl-3-thiomorpholine carboxamide]	> 20	> 20	6.3	2.1	1	1	fully impaired	
7.5	5	CCc1ccc(S(=O)(=O)N2CCSC(C)(C)[C@@H]2C(=O)NO)cc1 [Compound 8, (3S)—N-hydroxy-4-[(4-ethylphenyl)sulfonyl]-2,2-dimethyl-3-thiomorpholine carboxamide]	> 20	> 20	5.7	2.3				rare
